# Values of other authors, collected in patent US20100278900A1, “CHLORINE DIOXIDE BASED GUM AND CANDY” (BASF Corporation, priority 2009, published 2010).
# Details: in the absence of traditional abrasives
structure (smiles),measurement,value
[O][Cl+][O-] [chlorine dioxide],polishing effect,polishing effect
